Laboratory results: ChEMBL document CHEMBL1201862, “PubChem BioAssay data set” (2004)
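Step 1: Grow cells in 96-well plates. Step 2: Expose to compound for 48 hours at 5 concentrations. Step 3: Interpolate endpoints linearly; if unreached, use highest concentration. At the GI50, growth is halved.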 The source made the active and inactive calls. Cut-off read from the data, not from the text of the source: active = GI50 up to about 1.1 µM and inactive = higher.

Assays:
Assay in all cases: NCI-60 cell line screen, 48 h
SK-MEL-28 = test system: SK-MEL-28
ACHN = test system: ACHN
MDA-MB-435 = test system: MDA-MB-435
Hs-578T = test system: Hs-578T
NCI-H23 = test system: NCI-H23
T47D = test system: T47D
A498 = test system: A498
SR = test system: SR
RXF 393 = test system: RXF 393
MCF7 = test system: MCF7
Malme-3M = test system: Malme-3M
PC-3 = test system: PC-3
UO-31 = test system: UO-31
786-0 = test system: 786-0
OVCAR-5 = test system: OVCAR-5
OVCAR-3 = test system: OVCAR-3
NCI-H522 = test system: NCI-H522
EKVX = test system: EKVX
MOLT-4 = test system: MOLT-4
U-251 = test system: U-251

Measured: GI50

COc1ccc(OC)c(NC(=O)c2c(Cl)c(Cl)c(Cl)c(Cl)c2-c2nc3ccccc3[nH]2)c1
inactive: SK-MEL-28 > 100 µM | ACHN > 100 µM | MDA-MB-435 > 100 µM | Hs-578T > 100 µM | NCI-H23 > 100 µM | T47D > 100 µM | A498 > 100 µM | SR 52.6 µM | RXF 393 > 100 µM | MCF7 76.7 µM | Malme-3M > 100 µM | PC-3 > 100 µM | UO-31 > 100 µM | 786-0 > 100 µM | OVCAR-5 > 100 µM | OVCAR-3 > 100 µM | NCI-H522 > 100 µM | EKVX > 100 µM | MOLT-4 56.2 µM

CCCCN/N=N/c1cn(C2OC(CO)C(O)C2O)c(=O)[nH]c1=O (stereo unspecified)
inactive: SK-MEL-28 > 100 µM | ACHN > 100 µM | MDA-MB-435 > 100 µM | Hs-578T > 100 µM | NCI-H23 > 100 µM | T47D > 100 µM | A498 > 100 µM | SR > 100 µM | RXF 393 > 100 µM | MCF7 > 100 µM | Malme-3M > 100 µM | PC-3 > 100 µM | 786-0 > 100 µM | OVCAR-5 > 100 µM | OVCAR-3 > 100 µM | NCI-H522 > 100 µM | EKVX > 100 µM | MOLT-4 > 100 µM

O=C(NNC(=O)c1ccccc1O)c1cccs1
inactive: SK-MEL-28 > 100 µM | MDA-MB-435 > 100 µM | Hs-578T > 100 µM | T47D > 100 µM | A498 > 100 µM | SR 71 µM | RXF 393 > 100 µM | U-251 > 100 µM | MCF7 52.2 µM | Malme-3M 22.1 µM | PC-3 47.5 µM | UO-31 50.1 µM | 786-0 > 100 µM | OVCAR-5 45 µM | OVCAR-3 23.7 µM | NCI-H522 3.51 µM | EKVX 34.4 µM | MOLT-4 54.7 µM

Cc1nnc2n1N=C(c1ccccc1)/C(=C/c1ccc(-c3ccc(Cl)cc3)o1)S2
inactive: ACHN 13.5 µM | MDA-MB-435 4.61 µM | Hs-578T 54.3 µM | NCI-H23 15.9 µM | T47D 5.22 µM | A498 17.3 µM | SR 5.77 µM | RXF 393 10.8 µM | U-251 12.1 µM | MCF7 2.11 µM | Malme-3M 17.3 µM | PC-3 11.9 µM | UO-31 12.8 µM | 786-0 13.1 µM | OVCAR-5 20.6 µM | OVCAR-3 10.5 µM | NCI-H522 10.6 µM | EKVX 20 µM | MOLT-4 3.55 µM

COC1(O)C(=O)c2ccccc2OC1(OC)c1ccccc1 (stereo unspecified)
inactive: SK-MEL-28 > 100 µM | ACHN > 100 µM | MDA-MB-435 > 100 µM | Hs-578T > 100 µM | NCI-H23 > 100 µM | T47D > 100 µM | A498 > 100 µM | SR 50.4 µM | RXF 393 > 100 µM | U-251 > 100 µM | MCF7 48.9 µM | Malme-3M > 100 µM | PC-3 > 100 µM | 786-0 > 100 µM | OVCAR-5 > 100 µM | OVCAR-3 > 100 µM | NCI-H522 > 100 µM | EKVX > 100 µM | MOLT-4 75.2 µM

CCCCCCCCCCCCCCCCOP(=O)([O-])OCC[N+](C)(C)C1CC(C)(C)N(O)C(C)(C)C1
inactive: ACHN > 100 µM | MDA-MB-435 > 100 µM | Hs-578T > 100 µM | NCI-H23 > 100 µM | T47D > 100 µM | A498 > 100 µM | SR > 100 µM | RXF 393 > 100 µM | U-251 > 100 µM | MCF7 > 100 µM | Malme-3M > 100 µM | PC-3 > 100 µM | UO-31 > 100 µM | 786-0 > 100 µM | OVCAR-5 > 100 µM | OVCAR-3 > 100 µM | NCI-H522 > 100 µM | EKVX > 100 µM
